# Earlier results as cited in article PMC7904743, “WIDOCK: a reactive docking protocol for virtual screening of covalent inhibitors” (Journal of Computer-Aided Molecular Design, 2021).
# Where two headings read alike, the source gives them in different places.
# Key:
# [1] = thiol reactivity, cited from earlier work
# NUDT7 = conditions: protein labeling at 200 μM; experimental actives if % labeling higher than 50%; cited from earlier work
# OTUB2 = conditions: experimental actives if % labeling higher than 50%, cited from earlier work
# [2] = natural log of average rate constant k
# [3] = natural logarithm of average rate constant
# [4] = natural log of average kinetic rate constant
# [5] = natural log of average rate constant
Compound,"ln(avg k) [1, 2]","ln(avg k) [1, 3]",NUDT7 % labeling (NUDT7),OTUB2 % labeling (OTUB2),"ln(avg k) [1, 4]","ln(avg k) [1, 5]",OTUB2 % labeling (OTUB2; OTUB2 protein labeling)
"CC(NC(=O)CCl)C12CC3CC(CC(C3)C1)C2 (centres unmarked) [PCM-0102402, CC(NC(=O)CCl)C12CC3CC(CC(C3)C1)C2]",-17.061,-17.061,7%,24%,–,–,–
"O=C(CCl)NC12CC3CC(CC(C3)C1)C2 [PCM-0102118, O=C(CCl)NC12CC3CC(CC(C3)C1)C2]",-16.476,-16.476,0%,0%,–,–,–
"Cc1oc(NC(=O)CCl)c(C#N)c1C [PCM-0102337, Cc1oc(NC(=O)CCl)c(C#N)c1C]",-15.944,-15.944,0%,45%,–,–,–
"Cc1c(C#N)c(NC(=O)CCl)n(-c2ccc(F)cc2)c1C [PCM-0102099, Cc1c(C#N)c(NC(=O)CCl)n(-c2ccc(F)cc2)c1C]",-15.940,-15.940,17%,0%,–,–,–
"O=C(CCl)Nc1cc2[nH]c(=O)[nH]c2cc1Br [PCM-0102388, O=C(CCl)Nc1cc2[nH]c(=O)[nH]c2cc1Br]",-15.369,-15.369,0%,56%,–,–,–
"CC(C)N(C(=O)CCl)C1CCCC1 [PCM-0102948, CC(C)N(C(=O)CCl)C1CCCC1]",–,–,13%,–,-16.391,-16.391,0%
"CC1CCCCC1N(C)C(=O)CCl (centres unmarked) [PCM-0103026, CC1CCCCC1N(C)C(=O)CCl]",–,–,12%,–,-15.777,-15.777,0%
"O=C(CCl)NCc1cccs1 [PCM-0102280, O=C(CCl)NCc1cccs1]",-16.889,-16.889,0%,22%,–,–,–
"Cc1nc(CN2CCN(C(=O)CCl)CC2)cs1 [PCM-0102630, Cc1nc(CN2CCN(C(=O)CCl)CC2)cs1]",-15.690,-15.690,0%,0%,–,–,–
"O=C(CCl)N1CCN(Cc2ccc(Cl)s2)CC1 [PCM-0102277, O=C(CCl)N1CCN(Cc2ccc(Cl)s2)CC1]",-15.648,-15.648,0%,9%,–,–,–
"O=C(CCl)Nc1nc2c(s1)CCC2 [PCM-0102457, O=C(CCl)Nc1nc2c(s1)CCC2]",-15.357,-15.357,37%,0%,–,–,–
"CN(C)C(=O)c1ccc(NC(=O)CCl)cc1 [PCM-0102877, CN(C)C(=O)c1ccc(NC(=O)CCl)cc1]",–,–,0%,–,-15.682,-15.682,0%
"COc1ccc(C2CCCN2C(=O)CCl)cc1 (centres unmarked) [PCM-0102938, COc1ccc(C2CCCN2C(=O)CCl)cc1]",–,–,100%,–,-15.798,-15.798,0%
"O=C(CCl)N=c1sccn1Cc1ccccc1 [PCM-0102469, O=C(CCl)N=c1sccn1Cc1ccccc1]",-15.583,-15.583,0%,11%,–,–,–
"O=C(CCl)NCC12CC3CC(CC(C3)C1)C2 [PCM-0102706, O=C(CCl)NCC12CC3CC(CC(C3)C1)C2]",–,-16.508,0%,65%,–,-16.508,–
"CCc1cc(C(=O)NNC(=O)CCl)sc1C [PCM-0102300, CCc1cc(C(=O)NNC(=O)CCl)sc1C]",-17.034,-17.034,11%,83%,–,–,–

Compound,"ln(avg k) [1, 2]","ln(avg k) [1, 3]",NUDT7 % labeling (NUDT7),OTUB2 % labeling (OTUB2),"ln(avg k) [1, 4]","ln(avg k) [1, 5]",OTUB2 % labeling (OTUB2; OTUB2 protein labeling)
"Cc1ccc(S(C)(=O)=O)cc1NC(=O)CCl [PCM-0102858, Cc1ccc(S(C)(=O)=O)cc1NC(=O)CCl]",–,–,0%,–,-16.253,-16.253,0%
"CN(C)C(=O)CNC(=O)CCl [PCM-0102365, CN(C)C(=O)CNC(=O)CCl]",-17.142,-17.142,0%,0%,–,–,–
"CN(CCC#N)C(=O)CCl [PCM-0102712, CN(CCC#N)C(=O)CCl]",–,-15.839,0%,0%,–,-15.839,–
"CC(C)(C)N(Cc1cccc(F)c1)C(=O)CCl [PCM-0102833, CC(C)(C)N(Cc1cccc(F)c1)C(=O)CCl]",–,–,0%,–,-16.964,-16.964,0%
"CN(Cc1ccsc1)C(=O)CCl [PCM-0102865, CN(Cc1ccsc1)C(=O)CCl]",–,–,9%,–,-16.224,-16.224,0%
"O=C(CCl)Nc1nccs1 [PCM-0102242, O=C(CCl)Nc1nccs1]",-16.213,-16.213,0%,0%,–,–,–
"Cc1ccsc1CN(C)C(=O)CCl [PCM-0102785, Cc1ccsc1CN(C)C(=O)CCl]",–,–,20%,–,-15.849,-15.849,0%
"CC(=O)c1oc2ccccc2c1NC(=O)CCl [PCM-0102918, CC(=O)c1oc2ccccc2c1NC(=O)CCl]",–,–,39%,–,-15.842,-15.842,0%
"O=C(CCl)N1CCc2sccc2C1 [PCM-0102123, O=C(CCl)N1CCc2sccc2C1]",-15.106,-15.106,14%,39%,–,–,–
"Cc1cc(NC(=O)CCl)n(C(C)(C)C)n1 [PCM-0103057, Cc1cc(NC(=O)CCl)n(C(C)(C)C)n1]",–,–,0%,–,-16.148,-16.148,0%
"COc1ccc(NC(=O)CCl)cn1 [PCM-0102140, COc1ccc(NC(=O)CCl)cn1]",-13.166,-13.166,0%,0%,–,–,–
"Cc1ccc(C)c(S(=O)(=O)N2CCN(C(=O)CCl)CC2)c1 [PCM-0102353, Cc1ccc(C)c(S(=O)(=O)N2CCN(C(=O)CCl)CC2)c1]",-15.325,-15.325,19%,6%,–,–,–
"CC1(C)C(=O)Nc2ccccc2N1C(=O)CCl [PCM-0102546, CC1(C)C(=O)Nc2ccccc2N1C(=O)CCl]",-15.068,-15.068,18%,32%,–,–,–
"COCC(=O)NC(=O)CCl [PCM-0102904, COCC(=O)NC(=O)CCl]",–,–,0%,–,-18.669,-18.669,0%
"O=C(CCl)N1CCCC2CCCCC21 (centres unmarked) [PCM-0102826, O=C(CCl)N1CCCC2CCCCC21]",–,–,7%,–,-16.060,-16.060,0%
"CC(c1ccc(F)c(F)c1)N(C)C(=O)CCl (centres unmarked) [PCM-0102438, CC(c1ccc(F)c(F)c1)N(C)C(=O)CCl]",-16.135,-16.135,14%,8%,–,–,–
